Read-outs that look alike come from different tables or passages of the source.

Holding throughout (format): cell-based
In experiment [1] the test system is microfilariae of Dirofilaria immitis. Description: Dirofilaria immitis, Microfilaria (DiMf) In Vitro Assay. The settings on record: Dirofilaria immitis, 72 h, read-out: DiMf MED, Minimum Effective Dose, D. immitis microfilariae motility, in vitro.
In experiment [2] the test system is D. immitis L4 larvae. Description: Dirofilaria immitis, L4 Stage (DiL4) In Vitro Assay. The settings on record: for minimal effective concentration: Dirofilaria immitis, 72 h, read-out: DiL4 MED, Minimum Effective Dose, D. immitis L4 larvae motility, in vitro; for DiMf/DiL4: larval stage selectivity, ratio of DiMf MED to DiL4 MED.
Experiment [3] relates to third stage larvae of Haemonchus contortus. Description: Haemonchus contortus, Larvae Stage 3 (HcL3) In Vitro Assay. The settings on record: Haemonchus contortus, 96 h.
The mark [4] stands for this setting: read-out: HcL3 MED, Minimum Effective Dose, H. contortus third stage larvae, approximately 96 hours.
Setting [5] is: read-out: HcL3 MED, Haemonchus contortus third stage larvae in vitro, class mark appended to the Ex # in Table 3.

Turning to `CC(C)C[C@H]1C(=O)O[C@H](Cc2ccc(Cc3coc(C#N)c3)cc2)C(=O)N(C)[C@@H](CC(C)C)C(=O)O[C@H](C)C(=O)N(C)[C@@H](CC(C)C)C(=O)O[C@H](Cc2ccc(Cc3coc(C#N)c3)cc2)C(=O)N(C)[C@@H](CC(C)C)C(=O)O[C@H](C)C(=O)N1C` [Example 3-60, 4,4′-(((((2R,5S,8R,11 S,14R,17S,20R,23S)-5,11,17,23-tetraisobutyl-4,8,10,16,20,22-hexamethyl-3,6,9,12,15,18,21,24-octaoxo-1,7,13,19-tetraoxa-4,10,16,22-tetraazacyclotetracosane-2,14-diyl)bis(methylene))bis(4,1-phenylene))bis(methylene))bis(furan-2-carbonitrile)], the minimal effective concentration in experiment [1] was 0.05 µM; in experiment [2] it was 0.001 µM; in experiment [3] (setting [4]), more than 10 µM. In experiment [2], the DiMf/DiL4 is on record as 50.

As to `Cc1ccncc1Cc1ccc(C[C@H]2OC(=O)[C@H](CC(C)C)N(C)C(=O)[C@@H](C)OC(=O)[C@H](CC(C)C)N(C)C(=O)[C@@H](Cc3ccc(Cc4cnccc4C)cc3)OC(=O)[C@H](CC(C)C)N(C)C(=O)[C@@H](C)OC(=O)[C@H](CC(C)C)N(C)C2=O)cc1` [Example 3-223, (3S,6R,9S,12R,15S,18R,21S,24R)-3,9,15,21-tetraisobutyl-4,6,10,16,18,22-hexamethyl-12,24-bis(4-((4-methylpyridin-3-yl)methyl)benzyl)-1,7,13,19-tetraoxa-4,10,16,22-tetraazacyclotetracosan-2,5,8,11,14,17,20,23-octaone], the results for the minimal effective concentration in experiment [1], in experiment [2] and in experiment [3] (setting [4]) were 0.005 µM, 0.0007 µM and 5.7 µM, respectively. The DiMf/DiL4 in experiment [2] was found to be 7.1.

For the molecule `Cc1[nH]ncc1Cc1ccc(C[C@H]2OC(=O)[C@H](CC(C)C)N(C)C(=O)[C@@H](C)OC(=O)[C@H](CC(C)C)N(C)C(=O)[C@@H](Cc3ccc(Cc4cn[nH]c4C)cc3)OC(=O)[C@H](CC(C)C)N(C)C(=O)[C@@H](C)OC(=O)[C@H](CC(C)C)N(C)C2=O)cc1` [Example 3-243, (3S,6R,9S,12R,15S,18R,21S,24R)-3,9,15,21-tetraisobutyl-4,6,10,16,18,22-hexamethyl-12,24-bis(4-((5-methyl-1H-pyrazol-4-yl)methyl)benzyl)-1,7,13,19-tetraoxa-4,10,16,22-tetraazacyclotetracosan-2,5,8,11,14,17,20,23-octaone], the minimal effective concentration in experiment [1] turned out to be 0.001 µM; in experiment [2], 0.001 µM; in experiment [3] (setting [4]) it was 7.5 µM. Further, in experiment [2], the DiMf/DiL4 was 1.

Turning to `COc1ccnc(Cc2ccc(C[C@H]3OC(=O)[C@H](CC(C)C)N(C)C(=O)[C@@H](C)OC(=O)[C@H](CC(C)C)N(C)C(=O)[C@@H](Cc4ccc(Cc5nccc(OC)n5)cc4)OC(=O)[C@H](CC(C)C)N(C)C(=O)[C@@H](C)OC(=O)[C@H](CC(C)C)N(C)C3=O)cc2)n1` [Example 3-217, (3S,6R,9S,12R,15S,18R,21S,24R)-3,9,15,21-tetraisobutyl-6,18-bis(4-((4-methoxypyrimidin-2-yl)methyl)benzyl)-4,10,12,16,22,24-hexamethyl-1,7,13,19-tetraoxa-4,10,16,22-tetraazacyclotetracosan-2,5,8,11,14,17,20,23-octaone], the minimal effective concentration in experiment [1] was 0.003 µM; in experiment [2], less than 0.0007 µM; in experiment [3] (setting [5]), 1 to 3.3 µM; in experiment [3] (setting [4]), 3.3 µM. For the same molecule, the DiMf/DiL4 in experiment [2] is more than 4.3.

Take `COc1cccc(Cc2ccc(C[C@H]3OC(=O)[C@H](CC(C)C)N(C)C(=O)[C@@H](C)OC(=O)[C@H](CC(C)C)N(C)C(=O)[C@@H](Cc4ccc(Cc5cccc(OC)c5)cc4)OC(=O)[C@H](CC(C)C)N(C)C(=O)[C@@H](C)OC(=O)[C@H](CC(C)C)N(C)C3=O)cc2)c1` [Example 1-5, (3S,6R,9S,12R,15S,18R,21S,24R)-3,9,15,21-tetraisobutyl-6,18-bis(4-(3-methoxybenzyl)benzyl)-4,10,12,16,22,24-hexamethyl-1,7,13,19-tetraoxa-4,10,16,22-tetraazacyclotetracosan-2,5,8,11,14,17,20,23-octaone]: the minimal effective concentration is 0.5 µM in experiment [1], 0.001 µM in experiment [2] and more than 100 µM in experiment [3] (setting [4]). Further, the DiMf/DiL4 in experiment [2] came out at 500.

As to `CC(C)C[C@H]1C(=O)O[C@H](Cc2ccc(Cc3cccnc3N(C)C)cc2)C(=O)N(C)[C@@H](CC(C)C)C(=O)O[C@H](C)C(=O)N(C)[C@@H](CC(C)C)C(=O)O[C@H](Cc2ccc(Cc3cccnc3N(C)C)cc2)C(=O)N(C)[C@@H](CC(C)C)C(=O)O[C@H](C)C(=O)N1C` [Example 3-176, (3S,6R,9S,12R,15S,18R,21S,24R)-6,18-bis(4-((2-(dimethylamino)pyridin-3-yl)methyl)benzyl)-3,9,15,21-tetraisobutyl-4,10,12,16,22,24-hexamethyl-1,7,13,19-tetraoxa-4,10,16,22-tetraazacyclotetracosan-2,5,8,11,14,17,20,23-octaone], the minimal effective concentration in experiment [1] is 0.004 µM; in experiment [2], 0.0003 µM; in experiment [3] (setting [5]) it was 1 to 3.3 µM; in experiment [3] (setting [4]) it was 1.2 µM. In addition, the DiMf/DiL4 in experiment [2] was 13.3.

Turning to `Cc1ccsc1Cc1ccc(C[C@H]2OC(=O)[C@H](CC(C)C)N(C)C(=O)[C@@H](C)OC(=O)[C@H](CC(C)C)N(C)C(=O)[C@@H](Cc3ccccc3)OC(=O)[C@H](CC(C)C)N(C)C(=O)[C@@H](C)OC(=O)[C@H](CC(C)C)N(C)C2=O)cc1` [Example 4-34, (3S,6R,9S,12R,15S,18R,21S,24R)-6-benzyl-3,9,15,21-tetraisobutyl-4,10,12,16,22,24-hexamethyl-18-(4-((3-methylthiophen-2-yl)methyl)benzyl)-1,7,13,19-tetraoxa-4,10,16,22-tetraazacyclotetracosan-2,5,8,11,14,17,20,23-octaone], the minimal effective concentration was 0.01 µM in experiment [1]; 0.0003 µM in experiment [2]; less than 1 µM in experiment [3] (read-out: HcL3 MED (symbol after Ex#), approximately 96 hours incubation, multiple-resistant field isolate); 0.5 µM in experiment [3] (setting [4]); not above 1 µM in experiment [3] (read-out: HcL3 MED, approximately 96 hours incubation, multiple-resistant field isolate). For the same molecule, the DiMf/DiL4 in experiment [2] is listed as 33.3.

Take `Cc1cnccc1Cc1ccc(C[C@H]2OC(=O)[C@H](CC(C)C)N(C)C(=O)[C@@H](C)OC(=O)[C@H](CC(C)C)N(C)C(=O)[C@@H](Cc3ccc(Cc4ccncc4F)cc3)OC(=O)[C@H](CC(C)C)N(C)C(=O)[C@@H](C)OC(=O)[C@H](CC(C)C)N(C)C2=O)cc1` [Example 3-309, (3S,6R,9S,12R,15S,18R,21S,24R)-6-(4-((3-fluoropyridin-4-yl)methyl)benzyl)-3,9,15,21-tetraisobutyl-4,10,12,16,22,24-hexamethyl-18-(4-((3-methylpyridin-4-yl)methyl)benzyl)-1,7,13,19-tetraoxa-4,10,16,22-tetraazacyclotetracosan-2,5,8,11,14,17,20,23-octaone]: the minimal effective concentration was 0.003 µM in experiment [1], 0.00055 µM in experiment [2], 1 to 3.3 µM in experiment [3] (setting [5]) and 3.3 µM in experiment [3] (setting [4]). Also, the DiMf/DiL4 in experiment [2] was found to be 5.5.

(Values after patent publication US11771738B2 (Zoetis Services LLC, priority 2018, dated 2023).)
